Assay results reported in publication PMC3230400, “Peroxisome Proliferator-Activated Receptor γ Is a Target for Halogenated Analogs of Bisphenol A” (Environmental Health Perspectives, 2011).
Entries after “also recorded” stand apart in the source; their conditions may differ.

Key:
Assay type in all cases: cell-based
[1] = target: T1, ERα (Homo sapiens, UniProt P03372); experiment: HGELN-ERα stable reporter cell luciferase assay; details: for ranking order of estrogenic potency, ERα: HELN-ERα cell line; for agonistic activity toward ERα (luciferase): HGELN-ERα cells, relative to 10 nM E2; for ERα versus ERβ selectivity: HGELN-ERα vs HGELN-ERβ cells
T1 construct: expressed in transfected cells; host or cells: HGELN (HeLa-derived) cells, stably transfected
T1 sequence (P03372 1-595): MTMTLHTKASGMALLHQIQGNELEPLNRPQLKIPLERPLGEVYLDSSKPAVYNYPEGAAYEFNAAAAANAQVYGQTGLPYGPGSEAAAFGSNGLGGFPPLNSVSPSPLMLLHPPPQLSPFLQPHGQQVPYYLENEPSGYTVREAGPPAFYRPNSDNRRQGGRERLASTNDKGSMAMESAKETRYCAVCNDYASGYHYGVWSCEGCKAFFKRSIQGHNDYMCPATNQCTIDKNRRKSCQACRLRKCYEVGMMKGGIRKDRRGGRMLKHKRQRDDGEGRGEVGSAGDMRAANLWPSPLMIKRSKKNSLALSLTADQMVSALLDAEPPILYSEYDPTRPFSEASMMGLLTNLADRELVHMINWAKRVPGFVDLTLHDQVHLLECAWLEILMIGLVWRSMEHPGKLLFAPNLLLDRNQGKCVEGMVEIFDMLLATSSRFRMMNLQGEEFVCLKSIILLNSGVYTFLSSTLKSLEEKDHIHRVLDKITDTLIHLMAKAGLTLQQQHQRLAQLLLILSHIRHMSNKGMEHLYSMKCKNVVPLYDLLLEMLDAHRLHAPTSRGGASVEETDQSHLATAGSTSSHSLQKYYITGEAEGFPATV
Protocol: (§1) Reporter cell lines and stable gene expression assay. […] Briefly, reporter cells were seeded at a density of 20,000 cells/well in 96-well white opaque tissue culture plates and maintained in phenol-red–free Dulbecco’s modiﬁed Eagle’s medium (DMEM) supplemented with 5% dextran-coated, charcoal-treated fetal calf serum. Twenty-four hours later, culture medium was replaced with DMEM containing tested compounds. We performed assays in the absence of serum to avoid ligand capture by serum proteins. Sixteen hours after exposure, we replaced media with media containing 0.3 mM luciferin. Luminescence was measured in intact living cells for 2 sec in a Microbeta Wallac luminometer (PerkinElmer).

[2] = target: T2, ERβ (Homo sapiens, UniProt Q92731); experiment: HGELN-ERβ stable reporter cell luciferase assay; details: for ranking order of estrogenic potency, ERβ: HELN-ERβ cell line; for agonistic activity toward ERβ (luciferase): HGELN-ERβ cells, relative to 10 nM E2
T2 construct: expressed in transfected cells; host or cells: HGELN (HeLa-derived) cells, stably transfected
Protocol: as §1

[3] = target: T3, PPARγ (Homo sapiens, UniProt P37231); experiment: HGELN-PPARγ stable reporter cell luciferase assay; details: HGELN-PPARγ cells; for activation of PPARγ (luciferase): relative to 100 nM rosiglitazone
T3 sequence (P37231 238-505 limits assumed): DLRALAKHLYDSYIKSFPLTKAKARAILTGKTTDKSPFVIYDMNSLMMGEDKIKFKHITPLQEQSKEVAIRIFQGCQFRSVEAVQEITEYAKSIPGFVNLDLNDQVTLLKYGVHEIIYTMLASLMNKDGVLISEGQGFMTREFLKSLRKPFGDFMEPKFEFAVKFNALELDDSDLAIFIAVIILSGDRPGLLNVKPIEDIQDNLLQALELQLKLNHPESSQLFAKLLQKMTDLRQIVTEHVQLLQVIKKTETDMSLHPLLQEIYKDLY
Protocol: as §1

[4] = test system: 3T3L1 preadipocytes; experiment: 3T3L1 preadipocyte differentiation (Oil Red O staining); details: for induction of adipogenesis (Oil Red O staining): 8-day treatment with 10 μg/mL insulin and ligand, TCBPA and TBBPA at 10 μM
Protocol: NIH3T3-L1 differentiation. Two-day postconfluent 3T3L1 preadipocytes (a gift from L. Fajas; Institut de Génétique Moléculaire, Montpellier, France) were induced to differentiate by 2-day treatment with a differentiation mixture (10 μg/mL insulin, 1 μM dexamethasone, 0.5 mM isobutylmethylxanthine) followed by 8-day treatment with 10 μg/mL insulin and PPARγ ligands. The medium was replaced every 48 hr. After differentiation, cells were stained with Oil Red O for morphological analyses, or RNA was extracted from the cells using the RNeasy RNA isolation kit (Qiagen, Courtaboeuf, France). For RNA extractions, four independent cultures were performed per condition. Reverse transcription was performed with random hexamers on 1 μg total RNA using SuperScript II reverse transcriptase (Invitrogen), and the reaction was diluted 100 times for amplification. Real-time polymerase chain reaction (PCR) quantification was then performed using SYBR Green technology (LightCycler; Roche Diagnostics, Meylan, France). Results were normalized to two housekeeping genes (18S and 36B4) and quantified using qBase (Roche Diagnostics).
Two-day postconfluent 3T3L1 cells were treated for 8 days with 10 μg/mL insulin with vehicle (0.1% DMSO) or the ligands as indicated. Rosi, rosiglitazone. (A) Entire wells imaged after Oil Red O staining. (B) Quantitative real-time PCR of PPARγ and adipocyte-specific fatty acid–binding protein AP2 expression levels in postconfluent 3T3-L1 cells treated with the ligands for 24 hr. Data were normalized to 18S or 36B4 controls and plotted as average fold induction ± SE (n = 3 per treatment).

[5] = test system: PPARγ target genes (AP2, PPARγ) in 3T3-L1 cells; experiment: Real-time PCR of PPARγ target genes in 3T3-L1 cells
Protocol: Two-day postconfluent 3T3L1 preadipocytes (a gift from L. Fajas; Institut de Génétique Moléculaire, Montpellier, France) were induced to differentiate by 2-day treatment with a differentiation mixture (10 μg/mL insulin, 1 μM dexamethasone, 0.5 mM isobutylmethylxanthine) followed by 8-day treatment with 10 μg/mL insulin and PPARγ ligands. […] After differentiation, cells were stained with Oil Red O for morphological analyses, or RNA was extracted from the cells using the RNeasy RNA isolation kit (Qiagen, Courtaboeuf, France). […] Reverse transcription was performed with random hexamers on 1 μg total RNA using SuperScript II reverse transcriptase (Invitrogen), and the reaction was diluted 100 times for amplification. Real-time polymerase chain reaction (PCR) quantification was then performed using SYBR Green technology (LightCycler; Roche Diagnostics, Meylan, France). Results were normalized to two housekeeping genes (18S and 36B4) and quantified using qBase (Roche Diagnostics).
Two-day postconfluent 3T3L1 cells were treated for 8 days with 10 μg/mL insulin with vehicle (0.1% DMSO) or the ligands as indicated. […] (B) Quantitative real-time PCR of PPARγ and adipocyte-specific fatty acid–binding protein AP2 expression levels in postconfluent 3T3-L1 cells treated with the ligands for 24 hr.

[6] = target: T3, PPARγ; experiment: Transient transactivation assay in HeLa cells, GAL4-hPPARγ; details: 10 μM TBBPA, TCBPA, MEHP
[7] = test system: zebrafish PPARγ; experiment: Transient transactivation assay in HeLa cells, GAL4-zebrafish PPARγ LBD; details: 10 μM TBBPA, TCBPA, MEHP, 1 μM rosiglitazone

T2 sequence (Q92731 whole entry): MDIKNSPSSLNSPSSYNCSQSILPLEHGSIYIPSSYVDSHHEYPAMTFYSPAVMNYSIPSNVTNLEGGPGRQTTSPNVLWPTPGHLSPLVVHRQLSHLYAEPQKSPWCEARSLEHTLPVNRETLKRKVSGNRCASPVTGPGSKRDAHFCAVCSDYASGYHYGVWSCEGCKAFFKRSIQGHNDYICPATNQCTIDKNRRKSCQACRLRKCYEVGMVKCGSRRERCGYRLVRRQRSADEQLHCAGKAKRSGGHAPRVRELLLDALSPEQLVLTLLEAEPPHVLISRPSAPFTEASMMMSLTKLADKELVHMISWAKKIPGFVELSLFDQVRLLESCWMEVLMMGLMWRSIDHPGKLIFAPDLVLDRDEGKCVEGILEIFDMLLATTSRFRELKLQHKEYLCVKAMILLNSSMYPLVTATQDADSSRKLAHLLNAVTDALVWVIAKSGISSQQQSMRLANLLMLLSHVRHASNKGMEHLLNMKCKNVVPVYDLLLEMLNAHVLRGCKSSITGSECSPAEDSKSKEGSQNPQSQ

Molecule | ranking order of estrogenic potency, ERα [1] | ranking order of estrogenic potency, ERβ [2] | ranking of ability to activate PPARγ [3] | activation of PPARγ (luciferase) [3] | agonistic activity toward ERα (luciferase) [1] | agonistic activity toward ERβ (luciferase) [2] | induction of adipogenesis (Oil Red O staining) [4] | also measured
3,3´,5-tribromoBPA [triBBPA] | monoBBPA > diBBPA > triBBPA | monoBBPA > diBBPA > triBBPA | TBBPA = triBBPA > diBBPA >>> monoBBPA | highest potency | – | – | – | –
3,3´-dibromoBPA [diBBPA] | monoBBPA > diBBPA > triBBPA | monoBBPA > diBBPA > triBBPA | TBBPA = triBBPA > diBBPA >>> monoBBPA | – | highest transactivation efficiency | – | – | ERα versus ERβ selectivity [1]: slight ERα selectivity
3-MonobromoBPA [monoBBPA] | monoBBPA > diBBPA > triBBPA | monoBBPA > diBBPA > triBBPA | TBBPA = triBBPA > diBBPA >>> monoBBPA | – | highest transactivation efficiency | – | – | ERα versus ERβ selectivity [1]: slight ERα selectivity
CC(C)(c1ccc(O)cc1)c1ccc(O)cc1 [BPA, bisphenol A] | – | – | – | failed to activate; also recorded: absence of significant interaction | almost full agonistic activity; also recorded: highest transactivation efficiency | almost full agonistic activity | – | –
CC(C)(c1cc(Br)c(O)c(Br)c1)c1cc(Br)c(O)c(Br)c1 [TBBPA, 2,2-bis(3,5-dibromo-4-hydroxyphenyl)propane] | – | no estrogenic activity at all | – | – | – | little effect | induced adipogenesis | adipogenic action upon co-treatment with PPARγ antagonist CD5477 ([4]; co-treatment with CD5477): inhibited the adipogenic action
CC(C)(c1cc(Cl)c(O)c(Cl)c1)c1cc(Cl)c(O)c(Cl)c1 [TCBPA, 2,2-bis(3,5-dichloro-4-hydroxyphenyl)propane] | – | – | – | partially activating PPARγ | – | partially activated | induced adipogenesis | AP2 expression level compared with rosiglitazone [5]: much lesser extent; activation of human PPARγ (transient transfection) [6]: activators; activation of zebrafish PPARγ (transient transfection) [7]: activated
CN(CCOc1ccc(CC2SC(=O)NC2=O)cc1)c1ccccn1 (centres unmarked) [rosiglitazone, reference compound] | – | – | – | – | – | – | strongly induced adipogenesis | activation of zebrafish PPARγ (transient transfection) [7]: completely inactive
